From patent EP2737897A2, “Anti-inflammatory botanical products for the treatment of metabolic syndrome and diabetes” (Metaproteomics, LLC, priority 2005, dated 2007)
In brackets after ≈: the same amount, converted by molar mass. Where two headings read alike, the source gives them in different places. Marks after values point to notes of the source that are not given here.

How the values were obtained:
[1] = tested on: IL-6 secretion in LPS/3T3-L1 adipocytes; experiment: IL-6 secretion in the lipopolysaccharide/3T3-L1 adipocyte model (Example 26); type: cell-based, murine; conditions: 100 ng LPS/ml
[2] = tested on: adiponectin secretion in LPS/3T3-L1 adipocytes; experiment: Adiponectin secretion in the lipopolysaccharide/3T3-L1 adipocyte model (Example 26); conditions: 100 ng LPS/ml; for % Stimulation (maximum, adiponectin secretion): NS = not significantly different from the LPS control
PGE2 synthesis = experiment: cells; type: cell-based, murine; conditions: for IC50: Mus musculus
3T3-L1 adipocytes = experiment: Lipogenesis in 3T3-L1 adipocytes, Oil Red O or BODIPY staining; type: cell-based, murine
[3] = tested on: IL-6 secretion from insulin-resistant 3T3-L1 adipocytes; experiment: IL-6 secretion from insulin-resistant 3T3-L1 adipocytes; type: cell-based, murine; conditions: Mus musculus
[4] = tested on: adiponectin secretion from insulin-resistant 3T3-L1 adipocytes
[5] = tested on: adiponectin secretion from insulin-resistant 3T3-L1 adipocytes; experiment: cells; conditions: Mus musculus
[6] = tested on: interleukin-6 secretion from TNFα-treated 3T3-L1 adipocytes; experiment: Interleukin-6 secretion from TNFα-treated 3T3-L1 adipocytes; type: cell-based, murine; conditions: Mus musculus, 3T3-L1, read-out: IL-6 Index
COX-2 protein expression = experiment: Western blot of COX-2 protein expression in LPS-stimulated RAW 264.7 cells (Example 8); type: cell-based, murine; conditions: 20 hours stimulation with LPS; compared to DMSO solvent control
NF-κB = NF-κB DNA binding of nuclear extracts of LPS-stimulated RAW 264.7 cells, TransAM NF-κB kit (Example 9); type: cell-based, murine; conditions: MgRIAA 55 and 14 µg/ml, parthenolide 80 µM, LY294002 25 µM; LPS 1 µg/ml 4 h
NF-kBp65 = NF-kBp65 nuclear translocation in TNFα-treated D40 3T3-L1 adipocytes, TransAM ELISA (Example 32); type: cell-based, murine; conditions: 2.5 and 5.0 µg/ml; three or 24 hours following TNFα
Experimental: ELISA - 3T3-L1 adipocytes were maintained in growth media for 40 days following differentiation. Nuclear NF-kBp65 was determined using the TransAM™ NF-kB kit from Active Motif (Carlsbad, CA) was used with no modifications. […] Protein assay - Nuclear protein was quantified using the Active Motif Fluorescent Protein Quantificantion Kit. Statistical Analysis - Comparisons were performed using a one-tailed Student's t-test. The probability of a type I error was set at the nominal five percent level.

[7] = tested on: resistin secretion from insulin-resistant 3T3-L1 adipocytes; experiment: cells; conditions: Mus musculus, 3T3-L1, read-out: Resistin Index
Experimental: Resistin Assay - The amount of resistin secreted into the medium was quantified using the Quantikine® Mouse Resistin Immunoassay kit with no modifications (R&D Systems, Minneapolis, MN). […] All supernatant media samples were diluted 1:20 with dilution media supplied by the manufacturer before assay.
Statistical Calculations and Interpretation - All assays were preformed in duplicate. […] Differences among the doses were determined using the Student's t-test without correction for multiple comparisons; the nominal five percent probability of a type I error (one-tail) was selected.

[8] = tested on: adiponectin secretion from TNFα-treated 3T3-L1 adipocytes; experiment: Adiponectin secretion from TNFα-treated 3T3-L1 adipocytes; conditions: 10 ng TNFα/ml (Table 9)
[9] = RAW264.7, read-out: Relative IC50
[10] = 3T3-L1, read-out: Adiponectin Index

CC(=O)Oc1ccccc1C(=O)O [Aspirin]
Concentration (dose providing the maximum inhibition of IL-6 secretion) [1]: 25.0 µg/mL
Concentration (of maximum stimulation of adiponectin secretion) [2]: 113 µg/mL
% Stimulation (maximum, adiponectin secretion) [2]: failed to induce adiponectin secretion

COc1ccc2cc3[n+](cc2c1OC)CCc1cc2c(cc1-3)OCO2 [Berberine]
IC50 (PGE2 synthesis; RAW264.7): 3.3 µg/mL
IC50 (PGE2 synthesis; [9]): 2 to 6 µg/mL

Oc1cc(O)c2c(c1)OC(c1ccc(O)c(O)c1)C(O)C2 (stereo not drawn) [Catechin]
IC50 (PGE2 synthesis; RAW264.7): > 12 µg/mL
IC50 (PGE2 synthesis; [9]): > 12 µg/mL

O=c1c(O)c(-c2ccccc2)oc2cc(O)cc(O)c12 [Galangin]
Relative Potency (PGE2 synthesis): high

O=c1c(-c2ccc(O)cc2)coc2cc(O)cc(O)c12 [Genistein]
Relative Potency (PGE2 synthesis): high

CC(C)CCC1=C(O)C(CCC(C)C)(CCC(C)C)C(=O)C(C(=O)C(C)C)=C1O [Hexahydrocolupulone (HHCL), Hexahydrocolupulone]
adipogenic response (lipid content relative to solvent control) (3T3-L1 adipocytes; hops compounds 10, 5, 4 or 2 µg/ml, spent hops 50 µg/ml, positive controls indomethacin 5.0 and troglitazone […]): failed to elicit a lipogenic response greater than the solvent controls
activity at 6.25 µg/mL ([3]; 3T3-L1, 6.25 µg/ml, indexed to insulin only control, read-out: IL-6 Index): 100%
activity at 25 µg/mL ([3]; 3T3-L1, 25.0 µg/ml, indexed to insulin only control, read-out: IL-6 Index): 119%
activity at 50 µg/mL ([3]; 3T3-L1, 50.0 µg/ml, indexed to insulin only control, read-out: IL-6 Index): 277%
Adiponectin Index ([4]; 3t3-l1 adipocytes): 1.71#
fold induction at 6.25 µg/mL [5, 10]: 1.05
fold induction at 25 µg/mL [5, 10]: 1.62
fold induction at 50 µg/mL [5, 10]: 1.65
maximal fold induction ([5]; 3T3-L1, read-out: Maximum Adiponectin Secretion): 1.83
EC50 ([5]; 3T3-L1, read-out: Test Material at Half Maximal Secretion): 3.2 µg/mL

CC(C)Cc1ccc(C(C)C(=O)O)cc1 (stereo not drawn) [Ibuprofen]
% Inhibition (maximum, IL-6 secretion) [1]: 54* %
Concentration (dose providing the maximum inhibition of IL-6 secretion) [1]: 0.625 µg/mL
Concentration (of maximum stimulation of adiponectin secretion) [2]: 0.625 µg/mL
% Stimulation (maximum, adiponectin secretion) [2]: 22%

COc1ccc2c(c1)c(CC(=O)O)c(C)n2C(=O)c1ccc(Cl)cc1 [Indomethacin]
activation at 5 µg/mL (3T3-L1 adipocytes; Mus musculus, 3T3-L1, read-out: increase of nonpolar lipid incorporation relative to the solvent controls): 33%
% Inhibition (maximum, IL-6 secretion) [1]: 53* %
% Stimulation (maximum, adiponectin secretion) [2]: 9%

O=c1c(O)c(-c2ccc(O)cc2)oc2cc(O)cc(O)c12 [Keampferol]
IC50 (PGE2 synthesis; RAW264.7): 4.3 µg/mL (≈ 15 µM)
IC50 (PGE2 synthesis; [9]): 2 to 6 µg/mL (≈ 6.99 to 21 µM)

CN(C)C(=N)N=C(N)N [Metformin]
activity at 50 µg/mL (3T3-L1 adipocytes; Mus musculus, 3T3-L1, read-out: lipogenic index (observed)): 79%
activity at 1 µg/mL [6]: 91%
activity at 5 µg/mL [6]: 96%
activity at 10 µg/mL [6]: 78%
activity at 50 µg/mL [6]: 78%

O=c1c(O)c(-c2cc(O)c(O)c(O)c2)oc2cc(O)cc(O)c12 [Myricetin]
IC50 (PGE2 synthesis; RAW264.7): > 12 µg/mL
IC50 (PGE2 synthesis; [9]): > 12 µg/mL

C=C1C(=O)O[C@@H]2[C@H]3O[C@]3(C)CC/C=C(\C)CC[C@@H]12 [Parthenolide]
reduction in COX-2 protein expression (COX-2 protein expression): 22.5%
NF-κB DNA binding (NF-κB): significant reduction

CCc1ccc(CCOc2ccc(CC3SC(=O)NC3=O)cc2)nc1 (stereo not drawn) [Pioglitazone]
% Inhibition (maximum, IL-6 secretion) [1]: 63* %
amount of nuclear NF-kBp65 (NF-kBp65): did not inhibit
% Stimulation (maximum, adiponectin secretion) [2]: 12%

O=c1c(O)c(-c2ccc(O)c(O)c2)oc2cc(O)cc(O)c12 [Quercetin]
Relative Potency (PGE2 synthesis): high

Oc1ccc(C=Cc2cc(O)cc(O)c2)cc1 [Resveratrol]
IC50 (PGE2 synthesis; RAW264.7): 5.8 µg/mL (≈ 25.4 µM)
IC50 (PGE2 synthesis; [9]): 2 to 6 µg/mL (≈ 8.76 to 26.3 µM)

C[C@@H]1O[C@@H](OC[C@H]2O[C@@H](Oc3c(-c4ccc(O)c(O)c4)oc4cc(O)cc(O)c4c3=O)[C@H](O)[C@@H](O)[C@@H]2O)[C@H](O)[C@H](O)[C@H]1O [Rutin]
IC50 (PGE2 synthesis; RAW264.7): > 12 µg/mL
IC50 (PGE2 synthesis; [9]): > 12 µg/mL

O=C(O)c1ccccc1O [Salicylic acid]
Concentration (dose providing the maximum inhibition of IL-6 secretion) [1]: 50.0 µg/mL
IL-6 Index (maximum inhibition) ([1]; [IL-6Test - IL-6Control]/[IL-6LPS - IL-6Control]): 0.52*
Concentration (of maximum stimulation of adiponectin secretion) [2]: 173 µg/mL
% Stimulation (maximum, adiponectin secretion) [2]: failed to induce adiponectin secretion

c1cc2c(cc1[C@H]1OC[C@H]3[C@@H]1CO[C@@H]3c1ccc3c(c1)OCO3)OCO2 [Sesamin]
IC50 (PGE2 synthesis; RAW264.7): > 12 µg/mL
IC50 (PGE2 synthesis; [9]): > 12 µg/mL

Cc1c(C)c2c(c(C)c1O)CCC(C)(COc1ccc(CC3SC(=O)NC3=O)cc1)O2 (stereo not drawn) [Troglitazone]
activity at 1 µg/mL [6]: 66%
activity at 0.625 µg/mL ([3]; 3T3-L1, read-out: IL-6 Index): 100%
activity at 5 µg/mL ([3]; 3T3-L1, read-out: IL-6 Index): 131%
% Inhibition (maximum, IL-6 secretion) [1]: 69* %
Concentration (dose providing the maximum inhibition of IL-6 secretion) [1]: 10.0 µg/mL
concentration at which maximal adiponectin secretion was observed ([4]; of the four doses tested): 2.5 µg/mL
EC50 ([5]; 3T3-L1, read-out: Test Material at Half Maximal Secretion, estimated from the slope of Hofstee plots): 0.085 µg/mL (≈ 0.193 µM)
activity at 0.625 µg/mL [7]: 89%
activity at 5 µg/mL [7]: 143%
Concentration (of maximum adiponectin secretion) [8]: 0.625 µg/mL
Concentration (of maximum stimulation of adiponectin secretion) [2]: 0.625 µg/mL
% Stimulation (maximum, adiponectin secretion) [2]: 15%
